The results in this text go back to patent publication US9249102B2 (priority 2012, dated 2016).

The structures appear in SMILES notation. Where two headings read alike, the source gives them in different places. A value given as a limit tells only on which side of the number the result lay.

One series concerns Haemonchus contortus. The experiment in a line: Method A: Haemonchus contortus L1 larvae, microtitre plate screen. The settings on record: 96 h, read-out: motility inhibition.
Series [1] in a line: Method G: permeability in the Caco-2/TC7 in vitro model. To be noted: human, Caco-2, pH 6.5.
For the next series, the system named is Cooperia oncophora. The experiment in a line: Method C: Cooperia oncophora L1 larvae in vitro. To be noted: 96 h, read-out: inhibition of motility.
Series [2] relates to microfilaria of Dirofilaria immitis. The experiment in a line: Method F: microfilaria of Dirofilaria immitis, survival at 24 hours.
Where [3] appears, read: survival of microfilaria at 24 hours.

With `N#Cc1ccc(N[C@H]2CC[C@H](OCC(=O)N3CCN(CC4Cc5cc(Cl)ccc5O4)CC3)CC2)cc1C(F)(F)F` (stereo partly shown) [Compound 82], the inhibition (usually the share of the control response that was lost under treatment) at 5 µg/mL with Haemonchus contortus is no less than 90%. The Papp A→B (usually the apparent permeability from the apical to the basolateral side of a cell layer) at 20 μM in series [1] came to 7.1 ×10⁻⁶ cm/s.

Consider `O=C(CO[C@H]1CC[C@H](Nc2ccc([N+](=O)[O-])c(C(F)(F)F)c2)CC1)N1CCN(Cc2ccc3c(C(F)(F)F)cccc3n2)CC1` [Compound 329, 2-[4-(4-nitro-3-trifluoromethyl-phenylamino)-cyclohexyloxy]-1-[4-(5-trifluoromethyl-quinolin-2-ylmethyl)-piperazin-1-yl]-ethanone], for which the inhibition at 5 µg/mL with Haemonchus contortus was no less than 90%. Also, the Papp A→B at 20 μM in series [1] turned out to be 5.6 ×10⁻⁶ cm/s.

Turning to `COc1ccc2oc(CN3CCN(C(=O)CO[C@H]4CC[C@H](Nc5ccc([N+](=O)[O-])c(C(F)(F)F)c5)CC4)CC3)cc2c1` [Compound 323, 2-[(4-[[4-nitro-3-(trifluoromethyl)phenyl]amino]cyclohexyl)-oxy]1-[4-(5-methoxybenzofuran-2-ylmethyl)piperazin-1-yl]ethan-1-one], the inhibition at 5 µg/mL in the series with Haemonchus contortus was no less than 90%. This molecule came in with a Papp A→B at 20 μM in series [1] of 11.9 ×10⁻⁶ cm/s.

As for `O=C(CO[C@H]1CC[C@H](Nc2ccc([N+](=O)[O-])c(C(F)(F)F)c2)CC1)N1CCN(CC2Cc3cc(Cl)ccc3O2)CC1` (stereo partly shown) [Compound 76, 1-[4-[(5-chloro-2,3-dihydro-1-benzofuran-2-yl)methyl]piperazin-1-yl]-2-[(4-[[4-nitro-3-(trifluoromethyl)phenyl]amino]cyclohexyl)oxy]ethan-1-one], the inhibition at 5 µg/mL in the series on Haemonchus contortus and in the series with Cooperia oncophora was no less than 90% each time. In addition, the EC50 (in general, the concentration needed to bring the measured effect to its halfway point) in series [2] is less than 5 µg/mL.

On to `O=C(CO[C@H]1CC[C@H](Nc2ccc([N+](=O)[O-])c(C(F)(F)F)c2)CC1)N1CCN(C(=O)C2Cc3cc(F)ccc3O2)CC1` (stereo partly shown) [Compound 80, 1-[4-(5-fluoro-2,3-dihydro-benzofuran-2-carbonyl)-piperazin-1-yl]-2-[4-(4-nitro-3-trifluoromethyl-phenylamino)-cyclohexyloxy]-ethanone], for which, in the series on Haemonchus contortus, the inhibition at 5 µg/mL is no less than 90%. The Papp A→B at 20 μM in series [1] stood at 12.1 ×10⁻⁶ cm/s.

Turning to `O=C(CO[C@H]1CC[C@H](Nc2ccc([N+](=O)[O-])c(C(F)(F)F)c2)CC1)N1CCN(Cc2nc3cc(F)ccc3o2)CC1` [Compound 285, 2-[(4-[[4-nitro-3-(trifluoromethyl)phenyl]amino]cyclohexyl)-oxy]1-[4-(5-fluorobenzoxazol-2-ylmethyl)piperazin-1-yl]ethan-1-one], in the series with Haemonchus contortus, the inhibition at 5 µg/mL is no less than 90%. In series [1], this molecule returned a Papp A→B at 20 μM of 12 ×10⁻⁶ cm/s.

As to `O=C(CO[C@H]1CC[C@H](Nc2ccc([N+](=O)[O-])c(C(F)(F)F)c2)CC1)N1CCN(Cc2ccc3cc(C(F)(F)F)ccc3n2)CC1` [Compound 332, 2-[4-(4-nitro-3-trifluoromethyl-phenylamino)-cyclohexyloxy]-1-[4-(6-trifluoromethyl-quinolin-2-ylmethyl)-piperazin-1-yl]-ethanone], the inhibition at 5 µg/mL in the series with Haemonchus contortus is no less than 90%. This molecule also gave a Papp A→B at 20 μM in series [1] of 6.5 ×10⁻⁶ cm/s.

With `N#Cc1ccc(N[C@H]2CC[C@H](OCC(=O)N3CCN(Cc4ccc5cc(C(F)(F)F)ccc5n4)CC3)CC2)cc1C(F)(F)F` [Compound 334, 4-(4-{2-oxo-2-[4-(6-trifluoromethyl-quinolin-2-ylmethyl)-piperazin-1-yl]-ethoxy}-cyclohexylamino)-2-trifluoromethyl-benzonitrile], in the series on Haemonchus contortus, the inhibition at 5 µg/mL was no less than 90%. For the same molecule, the apical-to-basolateral permeability (Papp A→B) at 20 μM in series [1] worked out at 11.9 ×10⁻⁶ cm/s.

Consider `O=C(COC1CCC(Nc2ccc([N+](=O)[O-])c(C(F)(F)F)c2)CC1)N1CCN(c2ccc3cc(Br)ccc3n2)CC1` (stereo not shown) [Compound 266, 2-[[4-[(4-nitro-3-trifluoromethyl-phenyl)amino]cyclohexyl]oxy]-1-[4-(6-bromoquinolin-2-yl)piperazin-1-yl]ethan-1-one], for which the inhibition at 5 µg/mL with Haemonchus contortus and in the series with Cooperia oncophora was no less than 90% each time. This molecule showed an EC50 in series [2] (setting [3]) of less than 0.1 µg/mL.

In the case of `N#Cc1ccc(N[C@H]2CC[C@H](OCC(=O)N3CCN(c4ccc5cc(F)ccc5c4F)CC3)CC2)cc1C(F)(F)F` [Compound 290, 4-(4-{2-[4-(1,6-difluoro-naphthalen-2-yl)-piperazin-1-yl]-2-oxo-ethoxy}-cyclohexylamino)-2-trifluoromethyl-benzonitrile], the inhibition at 5 µg/mL in the series with Haemonchus contortus and in the series on Cooperia oncophora was no less than 90% each time. This molecule also returned an EC50 in series [2] (setting [3]) of less than 1 µg/mL.

Turning to `CC(c1ccc2cc(F)ccc2c1)N1CCN(C(=O)CO[C@H]2CC[C@H](Nc3ccc([N+](=O)[O-])c(C(F)(F)F)c3)CC2)CC1` (stereo partly shown) [Compound 298, 2-[(4-[[4-nitro-3-(trifluoromethyl)phenyl]amino]cyclohexyl)-oxy]1-[4-[1-(6-fluoronaphthalen-2-yl)ethyl]piperazin-1-yl]ethan-1-one], the inhibition at 5 µg/mL in the series with Haemonchus contortus and in the series on Cooperia oncophora was no less than 90% each time. The EC50 in series [2] (setting [3]) was less than 1 µg/mL.

As for `N#Cc1ccc(N[C@H]2CC[C@H](OCC(=O)N3CCN(c4ccc5cc(Br)ccc5n4)CC3)CC2)cc1C(F)(F)F` [Compound 271, 2-[(4-[[4-cyano-3-(trifluoromethyl)phenyl]amino]cyclohexyl)oxy]-1-[4-(6-bromoquinolin-2-yl)piperazin-1-yl]ethan-1-one], the inhibition at 5 µg/mL with Haemonchus contortus and in the series on Cooperia oncophora was no less than 90% each time. The EC50 in series [2] (setting [3]) was less than 1 µg/mL.

As for `O=C(CO[C@H]1CC[C@H](Nc2ccc([N+](=O)[O-])c(C(F)(F)F)c2)CC1)N1CCN(Cc2cc3ccc(Cl)cc3o2)CC1` [Compound 322, 2-[(4-[[4-nitro-3-(trifluoromethyl)phenyl]amino]cyclohexyl)-oxy]1-[4-(6-chlorobenzofuran-2-ylmethyl)piperazin-1-yl]ethan-1-one], the inhibition at 5 µg/mL with Haemonchus contortus is no less than 90%. The molecule also gave a Papp A→B at 20 μM in series [1] of 7.9 ×10⁻⁶ cm/s.

On to `O=C(CO[C@H]1CC[C@H](Nc2ccc([N+](=O)[O-])c(C(F)(F)F)c2)CC1)N1CCN(c2cnc3ccccc3c2)CC1` [Compound 336, 2-[4-[4-nitro-3-(trifluoromethyl)anilino]cyclohexoxy]-1-[4-(3-quinolyl)piperazin-1-yl]ethanone], for which the inhibition at 5 µg/mL in the series with Haemonchus contortus was no less than 90%. This molecule also showed a Papp A→B at 20 μM in series [1] of 7.9 ×10⁻⁶ cm/s.

Regarding `CN(c1ccc([N+](=O)[O-])c(C(F)(F)F)c1)[C@H]1CC[C@H](OCC(=O)N2CCN(c3ccc4cc(Cl)ccc4n3)CC2)CC1` [Compound 246, 1-[4-(6-chloroquinolin-2-yl)piperazin-1-yl]-2-[[4-[methyl[4-nitro-3-(trifluoromethyl)phenyl]amino]cyclohexyl]oxy]ethan-1-one], the inhibition at 5 µg/mL in the series with Haemonchus contortus and with Cooperia oncophora was no less than 90% in each case. Moreover, the EC50 in series [2] was less than 1 µg/mL.

Regarding `Cc1cc(N2CCN(C(=O)CO[C@H]3CC[C@H](Nc4ccc([N+](=O)[O-])c(C(F)(F)F)c4)CC3)CC2)nc2ccc(F)cc12` [Compound 99, 1-[4-(6-fluoro-4-methyl-2-quinolyl)piperazin-1-yl]-2-[4-[4-nitro-3-(trifluoromethyl)anilino]cyclohexoxy]ethanone], the inhibition at 5 µg/mL with Haemonchus contortus and with Cooperia oncophora was no less than 90% each time. The EC50 in series [2] (setting [3]) was less than 1 µg/mL.

Turning to `O=C(CO[C@H]1CC[C@H](Nc2ccc([N+](=O)[O-])c(C(F)(F)F)c2)CC1)N1CCN(c2nc3cc(F)ccc3s2)CC1` [Compound 237, 1-[4-(5-fluoro-1,3-benzothiazol-2-yl)piperazin-1-yl]-2-[[4-[[4-nitro-3-(trifluoromethyl)pheny-1]amino]cyclohexyl]oxy]ethan-1-one], the inhibition at 5 µg/mL in the series on Haemonchus contortus and in the series with Cooperia oncophora was no less than 90% throughout. The molecule also gave an EC50 in series [2] (setting [3]) of less than 0.1 µg/mL.

Turning to `N#Cc1ccc(N[C@H]2CC[C@H](OCC(=O)N3CCN(Cc4ccc5ccc(C(F)(F)F)cc5n4)CC3)CC2)cc1C(F)(F)F` [Compound 333, 4-(4-{2-oxo-2-[4-(7-trifluoromethyl-quinolin-2-ylmethyl)-piperazin-1-yl]-ethoxy}-cyclohexylamino)-2-trifluoromethyl-benzonitrile], the inhibition at 5 µg/mL with Haemonchus contortus is no less than 90%. For the same molecule, in series [1], the Papp A→B at 20 μM is 8.1 ×10⁻⁶ cm/s.

In the case of `O=C(CO[C@H]1CC[C@H](Nc2ccc([N+](=O)[O-])c(C(F)(F)F)c2)CC1)N1CCN(c2ccc3cc(Cl)ccc3n2)CC1` [Compound 90, 1-[4-(6-chloroquinolin-2-yl)piperazin-1-yl]-2-[(4-[[4-nitro-3-(trifluoromethyl)phenyl]amino]cyclohexyl)oxy]ethan-1-one], the inhibition at 5 µg/mL in the series on Haemonchus contortus and with Cooperia oncophora was no less than 90% in each case. This molecule also gave an EC50 in series [2] (setting [3]) of less than 0.1 µg/mL.

As to `N#Cc1ccc(N[C@H]2CC[C@H](OCC(=O)N3CCN(c4cnc5ccccc5c4)CC3)CC2)cc1C(F)(F)F` [Compound 335, 4-[[4-[2-oxo-2-[4-(3-quinolyl)piperazin-1-yl]ethoxy]cyclohexyl]amino]-2-(trifluoromethyl)benzonitrile], the inhibition at 5 µg/mL in the series on Haemonchus contortus was no less than 90%. The molecule further came in with a Papp A→B at 20 μM in series [1] of 15 ×10⁻⁶ cm/s.

On to `C[C@@H]1CN(CC2Cc3cc(F)ccc3O2)[C@@H](C)CN1C(=O)CO[C@H]1CC[C@H](Nc2ccc([N+](=O)[O-])c(C(F)(F)F)c2)CC1` (stereo partly drawn) [Compound 307, 1-[(2R,5S)-4-(5-fluoro-2,3-dihydro-benzofuran-2-ylmethyl)-2,5-dimethyl-piperazin-1-yl]-2-[4-(4-nitro-3-trifluoromethyl-phenylamino)-cyclohexyloxy]-ethanone], for which the inhibition at 5 µg/mL with Haemonchus contortus and with Cooperia oncophora was no less than 90% throughout. For the same molecule, the EC50 in series [2] (setting [3]) was less than 0.1 µg/mL.

With `O=C(CO[C@H]1CC[C@H](Nc2ccc([N+](=O)[O-])c(C(F)(F)F)c2)CC1)N1CCN(C(=O)c2cc3cc(C(F)(F)F)ccc3o2)CC1` [Compound 183, 2-[(4-[[4-nitro-3-(trifluoromethyl)phenyl]amino]cyclohexan-1-e)oxy]-1-(4-[[5-(trifluoromethyl)-1-benzofuran-2-yl]carbonyl]piperazin-1-yl)ethan-1-one], the inhibition at 5 µg/mL in the series on Haemonchus contortus and with Cooperia oncophora was no less than 90% each time. Besides, the EC50 in series [2] (setting [3]) is less than 1 µg/mL.
